These are literature values, as cited in patent US20240299501A1, “COMPOSITION AND METHODS OF TREATMENT USING TRANSDERMAL HORMONE SUPPLEMENTATION” (Xygenyx Inc., priority 2023, published 2024).

Bounds are passed on as bounds.

For series [1] the following is noted: single penetration enhancer.
Series [2] deals with wide dynamic range neurons in the ventroposterolateral nucleus of the thalamus. The settings on record: stated as 'is believed'.
The conditions of series [3]: in the human body.

`CC(C)[C@@H]1CC[C@@H](C)C[C@H]1O` [Menthol]: the “increase of drug uptake via the transdermal route (factor)” value in series [1] is listed as no less than 10.

Regarding `CCCCCc1cc(O)c2c(c1)OC(C)(C)C1CCC(C)=CC21` (stereo not shown) [THC, Δ-9-tetrahydrocannabinol], in series [2], the “potency relative to morphine in mediating pain” value is given as “ten times more powerful than morphine”.

Regarding `CC12CCC(CC1)C(C)(C)O2` [eucalyptol, 1,8-epoxy-p-menthane], in series [1], the “increase of drug uptake via the transdermal route (factor)” value was “more than 10”.

As for “HGH: hormone comprising a peptide chain that is synthesized in the pituitary gland”, the biological half-life in series [3] is given as 10-20 minutes.
